The values that follow come from US11267811B2, “Small molecule inhibitors of galectin-3” (BRISTOL-MYERS SQUIBB COMPANY, priority 2017, dated 2022).

The IC50 is the point on the concentration scale where inhibition reaches its midpoint.

For one assay, the target named is His-tagged recombinant human Gal-3 (hGal-3) (Homo sapiens (Human), UniProt P17931). Nature of the assay: Gal-3 HTRF assay (His-tagged hGal-3 binding to B-ASF).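 Further: compounds preincubated 30 min with hGal-3, then 1 h with B-ASF, detection via terbium anti-His antibody and streptavidin d2. Control with B-ASF counts as full signal, omitting B-ASF as background.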 The conditions noted are these: HTRF, hGal-3 15 nM, B-ASF 15 nM; read-out: hGal-3 IC50.
Chain of His-tagged recombinant human Gal-3 (hGal-3) (P17931 whole entry): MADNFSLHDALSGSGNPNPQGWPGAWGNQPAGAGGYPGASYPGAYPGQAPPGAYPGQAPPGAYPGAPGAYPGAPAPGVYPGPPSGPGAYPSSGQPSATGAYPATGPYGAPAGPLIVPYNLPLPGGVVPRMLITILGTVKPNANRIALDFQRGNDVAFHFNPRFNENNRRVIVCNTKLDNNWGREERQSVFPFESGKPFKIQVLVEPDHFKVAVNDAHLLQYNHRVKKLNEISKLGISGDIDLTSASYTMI
Regarding `CO[C@@H]1[C@@H](n2cc(-c3cc(F)c(F)c(F)c3)nn2)[C@@H](O)[C@@H](CO)O[C@H]1c1ncnn1-c1ccc2nc(C)sc2c1` [Example 191], the IC50 came to 0.06 µM.

As to `OC[C@H]1O[C@@H](c2ccnn2-c2ccc(Cl)c(Cl)c2)[C@H](O)[C@@H](n2cc(-c3cc(F)c(F)c(F)c3)nn2)[C@H]1O` [Example 285, (2S,3R,4R,5R,6R)-2-(1-(3,4-dichlorophenyl)-1H-pyrazol-5-yl)-6-(hydroxymethyl)-4-(4-(3,4,5-trifluorophenyl)-1H-1,2,3-triazol-1-yl)tetrahydro-2H-pyran-3,5-diol], the IC50 was found to be 0.445 µM.

Consider `CS(=O)(=O)c1nnc([C@@H]2O[C@H](CO)[C@H](O)[C@H](n3cc(-c4cc(F)c(F)c(F)c4)nn3)[C@H]2O)n1-c1ccc(Cl)c(Cl)c1` [Example 279, (2S,3R,4R,5R,6R)-2-(4-(3,4-dichlorophenyl)-5-(methylsulfonyl)-4H-1,2,4-triazol-3-yl)-6-(hydroxymethyl)-4-(4-(3,4,5-trifluorophenyl)-1H-1,2,3-triazol-1-yl)tetrahydro-2H-pyran-3,5-diol], for which the IC50 was 0.07 µM.

For `COc1ccc(-c2cn([C@H]3[C@@H](O)[C@@H](CO)O[C@@H](c4ncnn4-c4ccc5nc(C)sc5c4)[C@@H]3O)nn2)cc1F` [Example 223], the IC50 stood at 0.2 µM.

Turning to `O=C(O)CO[C@@H]1[C@@H](n2cc(-c3cc(F)c(F)c(F)c3)nn2)[C@@H](O)[C@@H](CO)O[C@H]1n1nncc1-c1cccc(Cl)c1` [Example 14], the IC50 worked out at 8.43 µM.

In the case of `Cc1nc2ccc(-n3c(C(N)=O)nnc3[C@@H]3O[C@H](CO)[C@H](O)[C@H](n4cc(-c5cc(F)c(F)c(F)c5)nn4)[C@H]3O)cc2s1` [Example 277, 5-((2S,3R,4R,5R,6R)-3,5-dihydroxy-6-(hydroxymethyl)-4-(4-(3,4,5-trifluorophenyl)-1H-1,2,3-triazol-1-yl)tetrahydro-2H-pyran-2-yl)-4-(2-methylbenzo[d]thiazol-6-yl)-4H-1,2,4-triazole-3-carboxamide], the IC50 stood at 0.04 µM.

Take `CN(C)c1ccc(-n2cnnc2[C@@H]2O[C@H](CO)[C@H](O)[C@H](n3cc(-c4cc(F)c(F)c(F)c4)nn3)[C@H]2O)cc1` [Example 91]: the IC50 worked out at 0.69 µM.

Turning to `Cc1nc2ccc(-n3ncnc3[C@@H]3O[C@H](CO)[C@H](O)[C@H](n4cc(-c5cc(F)c(N6CCC(O)CC6)c(F)c5)nn4)[C@H]3O)cc2s1` [Example 241, (2R,3R,4R,5R,6S)-4-(4-(3,5-difluoro-4-(4-hydroxypiperidin-1-yl)phenyl)-1H-1,2,3-triazol-1-yl)-2-(hydroxymethyl)-6-(1-(2-methylbenzo[d]thiazol-6-yl)-1H-1,2,4-triazol-5-yl)tetrahydro-2H-pyran-3,5-diol], the IC50 turned out to be 0.13 µM.

Take `CC(C)Oc1ccc(-n2cnnc2[C@@H]2O[C@H](CO)[C@H](O)[C@H](n3cc(-c4cc(F)c(F)c(F)c4)nn3)[C@H]2O)cc1` [Example 103]: the IC50 came to 0.7 µM.

Regarding `CCN(CC)CCNC(=O)c1nnc([C@@H]2O[C@H](CO)[C@H](O)[C@H](n3cc(-c4cccc(F)c4)nn3)[C@H]2O)o1` [Example 297, N-(2-(diethylamino)ethyl)-5-((2R,3R,4S,5R,6R)-4-(4-(3-fluorophenyl)-1H-1,2,3-triazol-1-yl)-3,5-dihydroxy-6-(hydroxymethyl)tetrahydro-2H-pyran-2-yl)-1,3,4-oxadiazole-2-carboxamide], the IC50 was found to be 9.77 µM.

As to `CS(=O)(=O)c1cccc(-n2cnnc2[C@@H]2O[C@H](CO)[C@H](O)[C@H](n3cc(-c4cc(F)c(F)c(F)c4)nn3)[C@H]2O)c1` [Example 128], the IC50 worked out at 0.31 µM.

As for `OC[C@H]1O[C@@H](c2nncn2-c2ccc3c(c2)OCO3)[C@H](O)[C@@H](n2cc(-c3cc(F)c(F)c(F)c3)nn2)[C@H]1O` [Example 76], the IC50 worked out at 0.12 µM.

As to `O=C(O)c1ccccc1-n1ncnc1[C@@H]1O[C@H](CO)[C@H](O)[C@H](n2cc(-c3cc(F)c(F)c(F)c3)nn2)[C@H]1O` [Example 33], the IC50 came to 0.79 µM.

Regarding `CC(=O)Nc1cccc(-n2cnnc2[C@@H]2O[C@H](CO)[C@H](O)[C@H](n3cc(-c4cc(F)c(F)c(F)c4)nn3)[C@H]2O)c1` [Example 84], the IC50 came to 0.9 µM.

As for `O=S(=O)(Nc1nccs1)c1ccc(-n2cnnc2[C@@H]2O[C@H](CO)[C@H](O)[C@H](n3cc(-c4cc(F)c(F)c(F)c4)nn3)[C@H]2O)cc1` [Example 106], the IC50 came out at 0.76 µM.

`Cc1nc([C@@H]2O[C@H](CO)[C@H](O)[C@H](n3cc(-c4cc(F)c(F)c(F)c4)nn3)[C@H]2O)n(-c2cncc(Cl)c2)n1` [Example 65]: the IC50 is 0.22 µM.

Take `OC[C@H]1O[C@@H](c2nncn2-c2ccc(-c3cnco3)cc2)[C@H](O)[C@@H](n2cc(-c3cc(F)c(F)c(F)c3)nn2)[C@H]1O` [Example 82]: the IC50 was 0.58 µM.

Consider `Cc1nc2ccc(-n3ncnc3[C@@H]3O[C@H](CO)[C@H](O)[C@H](n4cc(-c5ccc(C6CC6)c(F)c5)nn4)[C@H]3O)cc2s1` [Example 201, (2R,3R,4R,5R,6S)-4-(4-(4-cyclopropyl-3-fluorophenyl)-1H-1,2,3-triazol-1-yl)-2-(hydroxymethyl)-6-(1-(2-methylbenzo[d]thiazol-6-yl)-1H-1,2,4-triazol-5-yl)tetrahydro-2H-pyran-3,5-diol], for which the IC50 was found to be 0.35 µM.

As to `CC(=O)Nc1ccc(-n2cnnc2[C@@H]2O[C@H](CO)[C@H](O)[C@H](n3cc(-c4cc(F)c(F)c(F)c4)nn3)[C@H]2O)cc1O` [Example 159], the IC50 stood at 0.84 µM.

Consider `CN(C)S(=O)(=O)c1ccc(-n2cnnc2[C@@H]2O[C@H](CO)[C@H](O)[C@H](n3cc(-c4cc(F)c(F)c(F)c4)nn3)[C@H]2O)cc1` [Example 115], for which the IC50 came to 11.1 µM.

Staying with this assay, now noted: read-out: hGal3 IC50.
In the case of `CO[C@@H]1[C@@H](n2cc(-c3cc(F)c(F)c(F)c3)nn2)[C@@H](O)[C@@H](CO)O[C@H]1c1nncn1-c1ccc(Cl)c(Cl)c1` [Ex 283], the IC50 stood at 0.08 µM.

Regarding `Cc1nc2ccc(-n3ncnc3[C@@H]3O[C@H](CO)[C@H](O)[C@H](n4cc(-c5cc(F)c(Cl)c(F)c5)nn4)[C@H]3O)cc2s1` [Example 210], the IC50 came to 0.04 µM.

Turning to `CO[C@@H]1[C@@H](n2cc(-c3cc(F)c(Cl)c(F)c3)nn2)[C@@H](O)[C@@H](CO)O[C@H]1c1nncn1-c1cc(Cl)ccc1C(F)(F)F` [Example 308], the IC50 came out at 0.022 µM.

Consider `Cc1nc2ccc(-n3ncnc3[C@@H]3O[C@H](CO)[C@H](O)[C@H](n4cc(-c5ccccc5)nn4)[C@H]3O)cc2s1` [Example 214], for which the IC50 worked out at 0.6 µM.

Still in this assay, the particulars now being: read-out: hGal IC50.
Regarding `Cc1nc([C@@H]2O[C@H](CO)[C@H](O)[C@H](n3cc(-c4cc(F)c(Br)c(F)c4)nn3)[C@H]2O)n(-c2cc(Cl)ccc2C2CC2)n1` [Example A35], the IC50 stood at 0.151 µM.

Consider `Cc1nc([C@@H]2O[C@H](CO)[C@H](O)[C@H](n3cc(-c4ccc(Cl)c(F)c4F)nn3)[C@H]2O)n(-c2cc(Cl)ccc2C2CC2)n1` [Example A44], for which the half-inhibitory concentration (IC50) was determined as 0.14 µM.

As to `Cc1nc([C@@H]2O[C@H](CO)[C@H](O)[C@H](n3cc(-c4ccc(Br)c(F)c4)nn3)[C@H]2O)n(-c2cc(Cl)cc3ncccc23)n1` [Example A17], the IC50 was determined as 0.082 µM.

For the compound `Cc1nc([C@@H]2O[C@H](CO)[C@H](O)[C@H](n3cc(-c4cc(F)c5ccccc5c4)nn3)[C@H]2O)n(-c2ccc3ncsc3c2)n1` [Example A70], the IC50 stood at 0.015 µM.

In the case of `Cc1nc([C@@H]2O[C@H](CO)[C@H](O)[C@H](n3cc(-c4ccc(Br)c(F)c4)nn3)[C@H]2O)n(-c2ccc3ncsc3c2)n1` [Example A22], the IC50 is 0.022 µM.
